Values quoted from earlier work in article PMC3238097 (Journal of the American Chemical Society, 2011).

With naphthalene-diphenylalanine-glucosamine as the substance, how does the hydrogel formation read?
Its hydrogel formation is “fails to form hydrogel properly”.
